Assay results reported in patent publication US12358907B2, “Substituted pyrrolidine amides III” (GRÜNENTHAL GMBH, priority 2019, dated 2025).
pIC50: −log10 of the molar value.

target: glucocorticoid receptor (GAL4 DBD-GR) (Homo sapiens (Human), UniProt P04150); assay: GR cell-based assays (GRE agonist / GRE antagonist), CHO-Gal4/GR luciferase reporter; settings: CHO-Gal4/GR reporter cells, agonist mode (EC50) or antagonist mode against beclometasone (IC50), 6 hour incubation
Text: Potential selective glucocorticoid receptor modulators of this intervention can be tested for modulation of the activity of the glucocorticoid receptor using cell-based assays. These assays involve a Chinese hamster ovary (CHO) cell line which contains fragments of the glucocorticoid receptor as well as fusion proteins. The glucocorticoid receptor fragments used are capable of binding the ligand (e.g. beclomethasone) to identify molecules that compete for binding with glucocorticoid receptor ligands. In more detail, the glucocorticoid receptor ligand binding domain is fused to the DNA binding domain (DBD) of the transcription factor GAL4 (GAL4 DBD-GR) and is stably integrated into a CHO cell line containing a GAL4-UAS-Luciferase reporter construct. […] After cell lysis the luminescence that is produced by luciferase after addition of the substrate is detected and EC50 or IC50 values can be calcuated. Engagement of molecules which induce gene expression via glucocortocoid receptor binding to the DNA leads to expression of the luciferase gene under the control of the fusion protein GAL4 DBD-GR and therefore to a dose-dependent increase of the luminescence signal. Binding of molecules which repress beclomethasone-induced gene expression of the luciferase gene under the control of the fusion protein GAL4 DBD-GR leads to a dose-dependent reduction of the luminescence signal.
The reporter cell line CHO-Gal4/GR consisted of a chinese hamster ovary (CHO) cell line (Leibniz Institute DSMZ—German Collection of Microorganisms and Cell Cultures GmbH: ACC-110) containing a firefly luciferase gene under the control of the GR ligand binding domain fused to the DNA binding domain (DBD) of GAL4 (GAL4 DBD-GR) stably integrated into CHO cells. This cell line was established by stable transfection of CHO cells with a GAL4-UAS-Luciferase reporter construct. In a subsequent step the ligand binding domain of the GR cloned into pIRES2-EGFP-GAL4 containing the DNA binding domain of GAL4 from pFA-AT2 was transfected. This fusion construct activated firefly luciferase expression under the control of a multimerized GAL4 upstream activation sequence (UAS). The signal of the emitted luminescence was recorded by the FLIPR^TETRA. This allowed for specific detection of ligand-induced activation of the GR and therefore for the identification of compounds with agonistic properties. The GAL4/UAS reporter was premixed with a vector that constitutively expressed Renilla luciferase, which served as an internal positive control for transfection efficiency.
The complete culture medium for the assay was: • DMEM F-12 (1:1) MIXTURE (LONZA cat. No: BE04-687F/U1) 500 mL • 5 mL of 100 mM Sodium Pyruvate (LONZA cat. No: BE12-115E) • 25 mL of 7.5% Sodium Bicarbonate (LONZA cat. No BE17-613E) • 6.5 mL of 1 M Hepes (LONZA cat. No: BE17-737E) • 5 mL of 100× Penicillin/Streptomycin (LONZA cat. No DE17-602E) • 50 mL of Fetal Bovine Serum (Euroclone cat. No ECS 0180L) • 0.25 mL of 10 mg/mL Puromycin (InvivoGen cat.: ant-pr-1) • 0.5 mL of 100 mg/mL Zeocin (InvivoGen cat.: ant-zn-1)
Cryo-preserved CHO-Gal4/GR cells were suspended in complete medium and 5000 cells/25 μl/well were seeded into the wells of 384-well polystyrene assay plates (Thermo Scientific, cat. #4332) and cultured at 37° C., 5% CO2 and 95% humidity. After 24 hours growth medium was carefully removed and replaced by 30 μl Opti-MEM (GIBCO, cat. #31985062) as assay buffer. To test the compounds an 8-point half-log compound dilution curve was generated in 100% DMSO starting from a 2 mM stock and compounds were then diluted 1:50 in Opti-MEM. 10 μl of compounds were then added to the wells containing 30 μl Opti-MEM resulting in a final assay concentration range from 10 μM to 0.003 μM in 0.5% DMSO. Compounds were tested at 8 concentrations in quadruplicate data points. […] Finally, cells were lysed with 20 μl of Triton/Luciferin solution and the signal of the emitted luminescence was recorded at the FLIPR^TETRA for 2 minutes. […]

glucocorticoid receptor (GAL4 DBD-GR), sequence (P04150 524-758): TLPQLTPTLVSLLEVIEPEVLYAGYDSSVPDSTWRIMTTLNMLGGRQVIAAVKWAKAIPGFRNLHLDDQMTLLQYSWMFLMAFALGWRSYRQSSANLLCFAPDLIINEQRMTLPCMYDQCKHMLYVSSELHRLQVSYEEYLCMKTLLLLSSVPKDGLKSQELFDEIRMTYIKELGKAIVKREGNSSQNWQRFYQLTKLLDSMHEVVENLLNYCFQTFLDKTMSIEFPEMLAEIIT

For `C[C@@]1(CC(F)F)C(=O)N(c2ccc3c(cnn3-c3ccc(F)cc3)c2)[C@H](c2ccccc2)[C@H]1NC(=O)C1CC1` (racemic) [Example 136, N-(rac(2R,3S,4S)-4-(2,2-difluoroethyl)-1-(1-(4-fluorophenyl)-1H-indazol-5-yl)-4-methyl-5-oxo-2-phenylpyrrolidin-3-yl)cyclopropanecarboxamide], the pIC50 was over 7.00.

same assay, conditions: read-out: IC50 or EC50

First: CC[C@@H]1[C@@H](NC(=O)C(C)(F)F)[C@H](Cc2ccccc2)C(=O)N1c1ccc2c(cnn2-c2ccc(F)cc2)c1 (racemic) [Example 107, N-[rac-(2R,3S,4S)-4-Benzyl-2-ethyl-1-[1-(4-fluorophenyl)-1H-indazol-5-yl]-5-oxo-pyrrolidin-3-yl]-2,2-difluoro-propionamide]
Second: C[C@@H]1C(=O)N(c2ccc3c(cnn3-c3ccc(F)cc3)c2)[C@H](c2ccc(Cl)s2)[C@H]1NC(=O)C(C)(F)F (racemic) [Example 123, N-[rac-(2S,3S,4S)-2-(5-Chloro-thiophen-2-yl)-1-[1-(4-fluorophenyl)-1H-indazol-5-yl]-4-methyl-5-oxo-pyrrolidin-3-yl]-2,2-difluoro-propionamide]
The pIC50 of the first is lower: 4.82 to 6.00 for the first, over 7.00 for the second.

`C[C@@H]1C(=O)N(c2ccc3c(cnn3-c3ccc(F)cc3)c2)[C@H](c2ccc(Cl)s2)[C@H]1NC(=O)C1CC1` (racemic) [Example 108, N-[rac-(2S,3S,4S)-2-(5-Chloro-thiophen-2-yl)-1-[1-(4-fluorophenyl)-1H-indazol-5-yl]-4-methyl-5-oxo-pyrrolidin-3-yl]-cyclopropanecarboxylic acid amide] and `C[C@H]1C(=O)N(c2ccc3c(cnn3-c3ccc(F)cc3)c2)[C@H](c2ccc(Cl)s2)[C@H]1NC(=O)C1CC1` (racemic) [Example 124, N-[rac-(2S,3S,4R)-2-(5-Chloro-thiophen-2-yl)-1-[1-(4-fluorophenyl)-1H-indazol-5-yl]-4-methyl-5-oxo-pyrrolidin-3-yl]-cyclopropanecarboxylic acid amide] cannot be ordered by pIC50: over 7.00 for the first, over 7.00 for the second.

`C[C@@H]1C(=O)N(c2ccc3c(cnn3-c3ccc(F)cc3)c2)[C@H](c2ccc(Cl)s2)[C@H]1NC(=O)c1ncccn1` (racemic) [Example 109, N-[rac-(2S,3S,4S)-2-(5-Chloro-thiophen-2-yl)-1-[1-(4-fluorophenyl)-1H-indazol-5-yl]-4-methyl-5-oxo-pyrrolidin-3-yl]-pyrimidine-2-carboxylic acid amide] and `C[C@@H]1C(=O)N(c2ccc3c(cnn3-c3ccc(F)cc3)c2)[C@H](c2ccc(Cl)s2)[C@H]1NC(=O)c1cccnc1` (racemic) [Example 111, N-[rac-(2S,3S,4S)-2-(5-Chloro-thiophen-2-yl)-1-[1-(4-fluorophenyl)-1H-indazol-5-yl]-4-methyl-5-oxo-pyrrolidin-3-yl]-pyridine-3-carboxylic acid amide] cannot be ordered by pIC50: over 7.00 for the first, over 7.00 for the second.

First: C[C@@H]1C(=O)N(c2ccc3c(cnn3-c3ccc(F)cc3)c2)[C@H](c2ccc(Cl)s2)[C@H]1NC(=O)c1ccn(C)n1 (racemic) [Example 110, N-[rac-(2S,3S,4S)-2-(5-Chloro-thiophen-2-yl)-1-[1-(4-fluorophenyl)-1H-indazol-5-yl]-4-methyl-5-oxo-pyrrolidin-3-yl]-1-methyl-1H-pyrazole-3-carboxylic acid amide]
Second: Cc1ncsc1C(=O)N[C@H]1[C@H](C)C(=O)N(c2ccc3c(cnn3-c3ccc(F)cc3)c2)[C@@H]1c1ccc(Cl)s1 (racemic) [Example 113, N-[rac-(2S,3S,4S)-2-(5-Chloro-thiophen-2-yl)-1-[1-(4-fluorophenyl)-1H-indazol-5-yl]-4-methyl-5-oxo-pyrrolidin-3-yl]-4-methyl-thiazole-5-carboxylic acid amide]
The pIC50 of the first is higher: over 7.00 for the first, 6.00 to 7.00 for the second.

`C[C@@H]1C(=O)N(c2ccc3c(cnn3-c3ccc(F)cc3)c2)[C@H](c2ccccc2Cl)[C@H]1NC(=O)C1CC1` (racemic) [Example 112, N-[rac-(2R,3S,4S)-2-(2-Chlorophenyl)-1-[1-(4-fluorophenyl)-1H-indazol-5-yl]-4-methyl-5-oxo-pyrrolidin-3-yl]-cyclopropanecarboxylic acid amide] and `COc1ccc([C@@H]2[C@@H](NC(=O)C3CC3)[C@H](C)C(=O)N2c2ccc3c(cnn3-c3ccc(F)cc3)c2)cc1` (racemic) [Example 133, N-[rac-(2R,3S,4S)-1-[1-(4-Fluorophenyl)-1H-indazol-5-yl]-2-(4-methoxyphenyl)-4-methyl-5-oxo-pyrrolidin-3-yl]-cyclopropanecarboxylic acid amide] fall in the same range of pIC50: 6.00 to 7.00 for the first, 6.00 to 7.00 for the second.

First: C[C@@H]1C(=O)N(c2ccc3c(cnn3-c3ccc(F)cc3)c2)[C@H](c2ccn(C)n2)[C@H]1NC(=O)C(C)(F)F (racemic) [Example 120, 2,2-Difluoro-N-[rac-(2S,3S,4S)-1-[1-(4-fluorophenyl)-1H-indazol-5-yl]-4-methyl-2-(1-methyl-1H-pyrazol-3-yl)-5-oxo-pyrrolidin-3-yl]-propionamide]
Second: C[C@H]1C(=O)N(c2ccc3c(cnn3-c3ccc(F)cc3)c2)[C@H](c2ccc(Cl)s2)[C@H]1NC(=O)C(C)(F)F (racemic) [Example 125, N-[rac-(2S,3S,4R)-2-(5-Chloro-thiophen-2-yl)-1-[1-(4-fluorophenyl)-1H-indazol-5-yl]-4-methyl-5-oxo-pyrrolidin-3-yl]-2,2-difluoro-propionamide]
The pIC50 of the first is lower: 4.82 to 6.00 for the first, over 7.00 for the second.

`O=C(N[C@H]1[C@H](CC2CC2)C(=O)N(c2ccc3c(cnn3-c3ccc(F)cc3)c2)[C@@H]1c1ccccc1)C1CC1` (racemic) [Example 121, N-[rac-(2R,3S,4S)-4-(Cyclopropyl-methyl)-1-[1-(4-fluorophenyl)-1H-indazol-5-yl]-5-oxo-2-phenyl-pyrrolidin-3-yl]-cyclopropanecarboxylic acid amide] and `CC[C@@H]1C(=O)N(c2ccc3c(cnn3-c3ccc(F)cc3)c2)[C@H](c2ccccc2)[C@H]1NC(=O)C1CC1` (racemic) [Example 126, N-[rac-(2R,3S,4S)-4-Ethyl-1-[1-(4-fluorophenyl)-1H-indazol-5-yl]-5-oxo-2-phenyl-pyrrolidin-3-yl]-cyclopropanecarboxylic acid amide] cannot be ordered by pIC50: over 7.00 for the first, over 7.00 for the second.

First: C[C@]1(F)C(=O)N(c2ccc3c(cnn3-c3ccc(F)cc3)c2)[C@H](c2ccccc2)[C@H]1NC(=O)C1CC1 (racemic) [Example 128, N-[rac-(2R,3R,4R)-4-Fluoro-1-[1-(4-fluorophenyl)-1H-indazol-5-yl]-4-methyl-5-oxo-2-phenyl-pyrrolidin-3-yl]-cyclopropanecarboxylic acid amide]
Second: C[C@@]1(F)C(=O)N(c2ccc3c(cnn3-c3ccc(F)cc3)c2)[C@H](c2ccccc2)[C@H]1NC(=O)C1CC1 (racemic) [Example 129, N-[rac-(2R,3R,4S)-4-Fluoro-1-[1-(4-fluorophenyl)-1H-indazol-5-yl]-4-methyl-5-oxo-2-phenyl-pyrrolidin-3-yl]-cyclopropanecarboxylic acid amide]
The pIC50 of the first is lower: 6.00 to 7.00 for the first, over 7.00 for the second.

Work on `CC[C@@]1(C)C(=O)N(c2ccc3c(cnn3-c3ccc(F)cc3)c2)[C@H](c2ccccc2)[C@H]1NC(=O)C1CC1` (racemic) [Example 134, N-(rac-(2R,3S,4R)-4-ethyl-1-(1-(4-fluorophenyl)-1H-indazol-5-yl)-4-methyl-5-oxo-2-phenylpyrrolidin-3-yl)cyclopropanecarboxamide] yielded a pIC50 of 6.00 to 7.00.
